Experimental data from patent publication US10392630B2, “Plants having increased tolerance to herbicides” (BASF AGRO B.V., priority 2013, dated 2019).
Positions count from the first letter of the chain named.

Legend:
Experiment in all cases: biochemical
[1] = target: T1, Amaranthus mutant PPO (AMARE) (Amaranthus tuberculatus, UniProt Q0NZW9, F420V/R128L)
T1 sequence (Q0NZW9 1-534 R128L/F420V): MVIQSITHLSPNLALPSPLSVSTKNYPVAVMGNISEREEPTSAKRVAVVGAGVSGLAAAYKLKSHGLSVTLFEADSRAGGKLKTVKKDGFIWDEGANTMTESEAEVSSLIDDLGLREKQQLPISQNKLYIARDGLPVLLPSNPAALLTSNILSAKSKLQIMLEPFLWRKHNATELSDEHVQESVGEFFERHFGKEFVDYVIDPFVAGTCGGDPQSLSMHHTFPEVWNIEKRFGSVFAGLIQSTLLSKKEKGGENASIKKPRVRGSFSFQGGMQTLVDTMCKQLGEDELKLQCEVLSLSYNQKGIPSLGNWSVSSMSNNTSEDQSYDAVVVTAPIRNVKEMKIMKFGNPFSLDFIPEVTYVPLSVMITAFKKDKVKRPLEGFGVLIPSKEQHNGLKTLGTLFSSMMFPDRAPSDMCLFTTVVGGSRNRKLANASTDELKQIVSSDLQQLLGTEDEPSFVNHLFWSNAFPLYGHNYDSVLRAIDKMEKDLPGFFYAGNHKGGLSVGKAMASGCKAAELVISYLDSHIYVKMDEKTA

[2] = target: T2, Amaranthus mutant PPO (AMARE) (Amaranthus tuberculatus, UniProt Q0NZW9, F420L/R128A)
T2 sequence (Q0NZW9 1-534 R128A/F420L): T1 sequence (Q0NZW9 1-534 R128L/F420V) with L128A, V420L

[3] = target: T3, Amaranthus mutant PPO (AMARE) (Amaranthus tuberculatus, UniProt Q0NZW9, F420I/R128I)
T3 sequence (Q0NZW9 1-534 R128I/F420I): T1 sequence (Q0NZW9 1-534 R128L/F420V) with L128I, V420I

[4] = target: T4, Amaranthus mutant PPO (AMARE) (Amaranthus tuberculatus, UniProt Q0NZW9, F420L)
T4 sequence (Q0NZW9 1-534 F420L): T1 sequence (Q0NZW9 1-534 R128L/F420V) with L128R, V420L

[5] = target: T5, Amaranthus mutant PPO (AMARE) (Amaranthus tuberculatus, UniProt Q0NZW9, F420I)
T5 sequence (Q0NZW9 1-534 F420I): T1 sequence (Q0NZW9 1-534 R128L/F420V) with L128R, V420I

## C#CCN1C(=O)C(F)(F)Oc2cc(F)c(-n3c(=O)n(C)c(=S)n(C)c3=O)cc21 [BAS 850H]
[1]
  IC50: 1510 nM
[2]
  IC50: 16.2 nM
[3]
  IC50: 433 nM

## CC(C)N(C)S(=O)(=O)NC(=O)c1cc(-n2c(=O)cc(C(F)(F)F)n(C)c2=O)c(F)cc1Cl [saflufenacil]
[4]
  IC50: 7200 nM
[5]
  IC50: 919 nM
[1]
  IC50: > 10000 nM
[2]
  IC50: > 10000 nM
[3]
  IC50: > 10000 nM
